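GI50 marks 50% less growth. TGI is the concentration that stops growth completely.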
What was measured:
Experiment in all cases: DTP human tumour cell line panel, 384-well format; in the data active = GI50 below about 0.43 µM; inactive = the rest
[1] = test system: SF-539 CNS
[2] = test system: HT29 colon
[3] = test system: IGROV1 ovarian
[4] = test system: HCT-15 colon
[5] = test system: SNB-19 CNS
[6] = test system: COLO 205 colon
[7] = test system: NCI-H23 lung
[8] = test system: U251 glioblastoma
[9] = test system: SF-295 CNS
[10] = test system: OVCAR-3 ovarian
[11] = test system: RPMI-8226 leukemia
[12] = test system: HL-60(TB) leukemia
[13] = test system: M14 melanoma
[14] = test system: NCI-H226 lung
[15] = test system: SK-OV-3 ovarian
[16] = test system: BT-549 breast
[17] = test system: OVCAR-4 ovarian
[18] = test system: NCI/ADR-RES ovarian
[19] = test system: SNB-75 CNS
[20] = test system: HCT-116 colon
[21] = test system: CAKI-1 renal
[22] = test system: SR leukemia
[23] = test system: ACHN renal
[24] = test system: MDA-MB-468 breast
[25] = test system: NCI-H460 NSCLC
[26] = test system: T-47D breast
[27] = test system: MCF7 breast
[28] = test system: MOLT-4 leukemia
[29] = test system: TK-10 renal
[30] = test system: SN12C renal
[31] = test system: HOP-92 NSCLC
[32] = test system: HS 578T breast
[33] = test system: MDA-MB-231 breast
[34] = test system: HOP-62 NSCLC
[35] = test system: NCI-H322M lung
[36] = test system: SF-268 CNS
[37] = test system: RXF 393 renal
[38] = test system: LOX IMVI melanoma
[39] = test system: PC-3 prostate
[40] = test system: MALME-3M melanoma
[41] = test system: SK-MEL-5 melanoma
[42] = test system: OVCAR-5 ovarian
[43] = test system: SK-MEL-28 melanoma
[44] = test system: KM12 colon
[45] = test system: MDA-MB-435 melanoma
[46] = test system: NCI-H522 lung
[47] = test system: OVCAR-8 ovarian
[48] = test system: A549 NSCLC
[49] = test system: HCC-2998 colon
[50] = test system: A498 renal
[51] = test system: EKVX NSCLC
[52] = test system: DU-145 prostate
[53] = test system: UACC-257 melanoma
[54] = test system: UACC-62 melanoma
[55] = test system: K-562 leukemia
[56] = test system: 786-0 renal
[57] = test system: UO-31 renal

O=C(/C=C/c1cccnc1)NCCCCC1CCN(C(=O)c2ccccc2)CC1
67.9 nM: TGI [50]
> 100000 nM: TGI [14]
10.8 nM: TGI [48]
< 10 nM: TGI [1] | TGI [2] | TGI [3] | TGI [4] | TGI [5] | TGI [6] | TGI [7] | TGI [8] | TGI [9] | TGI [10] | TGI [11] | TGI [12] | TGI [13] | TGI [15] | TGI [16] | TGI [17] | TGI [18] | TGI [19] | TGI [20] | TGI [21] | TGI [22] | TGI [23] | TGI [24] | TGI [26] | TGI [27] | TGI [28] | TGI [29] | TGI [30] | TGI [32] | TGI [33] | TGI [34] | TGI [35] | TGI [36] | TGI [37] | TGI [38] | TGI [39] | TGI [41] | TGI [42] | TGI [43] | TGI [44] | TGI [45] | TGI [46] | TGI [47] | TGI [49] | TGI [51] | TGI [52]
13.9 nM: TGI [40]
11.7 nM: TGI [25]
active: GI50 [1] < 10 nM | GI50 [2] < 10 nM | GI50 [3] < 10 nM | GI50 [4] < 10 nM | GI50 [5] < 10 nM | GI50 [6] < 10 nM | GI50 [7] < 10 nM | GI50 [8] < 10 nM | GI50 [9] < 10 nM | GI50 [10] < 10 nM | GI50 [11] < 10 nM | GI50 [12] < 10 nM | GI50 [13] < 10 nM | GI50 [14] 60.2 nM | GI50 [15] < 10 nM | GI50 [16] < 10 nM | GI50 [17] < 10 nM | GI50 [18] < 10 nM | GI50 [19] < 10 nM | GI50 [20] < 10 nM | GI50 [21] < 10 nM | GI50 [22] < 10 nM | GI50 [23] < 10 nM | GI50 [24] < 10 nM | GI50 [25] < 10 nM | GI50 [26] < 10 nM | GI50 [27] < 10 nM | GI50 [28] < 10 nM | GI50 [29] < 10 nM | GI50 [30] < 10 nM | GI50 [31] < 10 nM | GI50 [32] < 10 nM | GI50 [33] < 10 nM | GI50 [34] < 10 nM | GI50 [35] < 10 nM | GI50 [36] < 10 nM | GI50 [37] < 10 nM | GI50 [38] < 10 nM | GI50 [39] < 10 nM | GI50 [40] < 10 nM | GI50 [41] < 10 nM | GI50 [42] < 10 nM | GI50 [43] < 10 nM | GI50 [44] < 10 nM | GI50 [45] < 10 nM | GI50 [46] < 10 nM | GI50 [47] < 10 nM | GI50 [48] < 10 nM | GI50 [49] < 10 nM | GI50 [50] 16.9 nM | GI50 [51] < 10 nM | GI50 [52] < 10 nM
24 nM: TGI [31]

NC(=O)c1cnc(N[C@@H]2CCCC[C@@H]2N)nc1Nc1cccc(-n2nccn2)c1
2300 nM: TGI [10] | TGI [53]
2780 nM: TGI [26]
2700 nM: TGI [48]
1450 nM: TGI [38]
1350 nM: TGI [11]
1920 nM: TGI [45]
153 nM: TGI [12]
2750 nM: TGI [8]
2320 nM: TGI [20] | TGI [32]
3110 nM: TGI [36]
3770 nM: TGI [33]
21500 nM: TGI [18]
1830 nM: TGI [21]
1770 nM: TGI [27]
2030 nM: TGI [13]
2260 nM: TGI [50]
1810 nM: TGI [54]
inactive: GI50 [1] 1290 nM | GI50 [2] 502 nM | GI50 [3] 631 nM | GI50 [4] 1230 nM | GI50 [5] 1310 nM | GI50 [6] 761 nM | GI50 [7] 801 nM | GI50 [8] 1390 nM | GI50 [9] 1650 nM | GI50 [10] 1020 nM | GI50 [13] 714 nM | GI50 [14] 1210 nM | GI50 [15] 623 nM | GI50 [16] 848 nM | GI50 [18] 9300 nM | GI50 [19] 1410 nM | GI50 [20] 1030 nM | GI50 [21] 473 nM | GI50 [23] 1280 nM | GI50 [24] 1440 nM | GI50 [25] 1410 nM | GI50 [26] 1410 nM | GI50 [28] 1140 nM | GI50 [29] 438 nM | GI50 [31] 1270 nM | GI50 [32] 1080 nM | GI50 [33] 1150 nM | GI50 [34] 462 nM | GI50 [35] 1130 nM | GI50 [36] 1560 nM | GI50 [37] 1510 nM | GI50 [53] 1100 nM | GI50 [39] 617 nM | GI50 [40] 1230 nM | GI50 [42] 769 nM | GI50 [43] 1380 nM | GI50 [45] 571 nM | GI50 [47] 1140 nM | GI50 [48] 1310 nM | GI50 [50] 1040 nM | GI50 [51] 1420 nM | GI50 [52] 1250 nM
2810 nM: TGI [24]
2570 nM: TGI [23]
1130 nM: TGI [41]
1630 nM: TGI [30]
2370 nM: TGI [28]
2150 nM: TGI [7]
1980 nM: TGI [2] | TGI [17]
2430 nM: TGI [35] | TGI [39]
2410 nM: TGI [47]
2820 nM: TGI [15]
active: GI50 [11] 227 nM | GI50 [12] 12.6 nM | GI50 [17] 236 nM | GI50 [22] 183 nM | GI50 [27] 225 nM | GI50 [30] 178 nM | GI50 [38] 372 nM | GI50 [54] 305 nM | GI50 [41] 145 nM | GI50 [44] 410 nM | GI50 [46] 274 nM | GI50 [49] 415 nM
2690 nM: TGI [43]
1690 nM: TGI [44]
2060 nM: TGI [6] | TGI [34]
2290 nM: TGI [3]
4000 nM: TGI [5]
2770 nM: TGI [25]
2610 nM: TGI [4]
1590 nM: TGI [46]
2980 nM: TGI [31] | TGI [52]
2910 nM: TGI [37]
2490 nM: TGI [40]
2340 nM: TGI [42]
2510 nM: TGI [14]
2590 nM: TGI [1]
2110 nM: TGI [16]
1840 nM: TGI [29]
3060 nM: TGI [9]
1470 nM: TGI [22]
1850 nM: TGI [49]
3230 nM: TGI [19]
2920 nM: TGI [51]

Cc1c(C#N)cccc1-c1cc(-c2cn(Cc3cccc(C(C)(C)O)n3)nn2)nc(N)n1
active: GI50 [24] 368 nM | GI50 [44] 334 nM
96300 nM: TGI [29]
79000 nM: TGI [53]
95800 nM: TGI [9]
inactive: GI50 [2] 41100 nM | GI50 [9] 25600 nM | GI50 [11] 14900 nM | GI50 [13] 57800 nM | GI50 [15] 33800 nM | GI50 [18] 17500 nM | GI50 [19] 53200 nM | GI50 [55] 25300 nM | GI50 [26] 15200 nM | GI50 [29] 24000 nM | GI50 [33] 30500 nM | GI50 [56] 38200 nM | GI50 [53] 25700 nM | GI50 [39] 29900 nM | GI50 [40] 25200 nM | GI50 [45] 36000 nM | GI50 [57] 19000 nM | GI50 [46] 18300 nM | GI50 [51] 32100 nM
44500 nM: TGI [18]
31500 nM: TGI [11]
> 100000 nM: TGI [2] | TGI [13] | TGI [15] | TGI [19] | TGI [55] | TGI [33] | TGI [56] | TGI [39] | TGI [44] | TGI [45] | TGI [51]
28700 nM: TGI [24]
50900 nM: TGI [26]
62500 nM: TGI [57]
62400 nM: TGI [46]
96400 nM: TGI [40]
